This passage reports IC50 results from patent US9862730B2, “Imidazothiadiazole derivatives as protease activated receptor 4 (PAR4) inhibitors for treating platelet aggregation” (BRISTOL-MYERS SQUIBB COMPANY, priority 2012, dated 2018).

By IC50 is commonly meant the concentration that inhibits the measured activity by half.

The experiment addresses PAR4 (Homo sapiens (Human), UniProt Q96RI0). Kind of experiment: FLIPR assay in PAR4-expressing HEK293 cells (PAR4 antagonist activity, calcium mobilization). The experiment is classed as cell-based. As to conditions: FLIPR assay as described in Example A. In short, it runs like this: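 HEK293 cells stably expressing human PAR4 (also endogenous PAR1) in HBSS/10 mM HEPES, 0.67% DMSO final. Compound added and read for agonist activity, then 30 min room temperature before PAR4 agonist peptide; intracellular calcium mobilization monitored by FDSS/FLIPR.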

PAR4, sequence (Q96RI0 18-385): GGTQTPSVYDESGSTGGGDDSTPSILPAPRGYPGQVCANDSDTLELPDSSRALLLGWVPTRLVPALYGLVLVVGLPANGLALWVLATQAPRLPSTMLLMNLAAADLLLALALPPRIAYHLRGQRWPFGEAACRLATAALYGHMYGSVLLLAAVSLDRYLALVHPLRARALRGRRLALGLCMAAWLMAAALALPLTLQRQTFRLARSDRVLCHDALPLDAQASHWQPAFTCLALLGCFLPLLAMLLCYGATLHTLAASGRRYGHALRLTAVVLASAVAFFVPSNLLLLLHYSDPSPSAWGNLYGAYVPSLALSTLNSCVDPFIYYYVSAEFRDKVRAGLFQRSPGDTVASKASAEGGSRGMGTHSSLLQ

`CSc1nn2cc(-c3nc4ccc(OCc5cc(F)cc(F)c5)cc4o3)nc2s1` [Example 152]: the IC50 turned out to be 340 nM. In the case of `CC(F)(F)c1nn2cc(-c3cc4cccc(OC(F)(F)F)c4o3)nc2s1` [Example 240] it was 671 nM. As for `CSc1nn2cc(-c3cc4cccc(OC(F)(F)F)c4o3)nc2s1` [Example 70], the figure is 400 nM; as for `COc1cc(OCc2cc(OCc3ccccc3)cc(C(F)(F)F)c2)c2cc(-c3cn4nc(OC)sc4n3)oc2c1` [Example 400], 7.47 nM. As for `CCOc1cccc2oc(-c3cn4nc(SC)sc4n3)nc12` [Example 158], the figure is 69.3 nM. `COc1cc(OCc2cccc(OCc3ccc(F)cc3F)c2)c2cc(-c3cn4nc(OC)sc4n3)oc2c1` [Example 374]: the IC50 was 2.3 nM. `COc1nn2cc(-c3cc4c(OCc5cccc(OCc6ccccc6)c5)cc(NC(C)=O)cc4o3)nc2s1` [Example 412, N-(4-((3-(Benzyloxy)benzyl)oxy)-2-(2-methoxyimidazo[2,1-b][1,3,4]thiadiazol-6-yl)benzofuran-6-yl)acetamide]: the 50% inhibitory concentration (IC50) was determined as 72.5 nM. In the case of `COc1cc(OCc2cccc(OCc3ccc(OC)c(OC)c3)c2)c2cc(-c3cn4nc(OC)sc4n3)oc2c1` [Example 389] it was 0.73 nM; in that of `CC(F)c1nn2cc(-c3cc4c(OCc5ccccc5)cccc4o3)nc2s1` (stereo not drawn) [Example 251], 230 nM; in that of `CC(F)(F)c1nn2cc(-c3nc4c(N)cccc4o3)nc2s1` [Example 124, 2-(2-(1,1-Difluoroethyl)imidazo[2,1-b][1,3,4]thiadiazol-6-yl)-4-aminobenzo[d]oxazole], 3480 nM. In the case of `COc1nn2cc(-c3cc4c(OCc5cccc(OCc6ccccc6)c5)cc(C#N)cc4o3)nc2s1` [Example 417] it was 5.02 nM. `COc1cc(OCc2cccc(OCc3cc(F)cc(F)c3)c2)c2cc(-c3cn4nc(OC)sc4n3)oc2c1` [Example 311]: the IC50 is 8.82 nM.

Regarding `COc1cccc2sc(-c3cn4nc(SC)sc4n3)nc12` [Example 6, 4-Methoxy-2-(2-(methylthio)imidazo[2,1-b][1,3,4]thiadiazol-6-yl)benzo[d]thiazole], the IC50 came to 618 nM. As for `CSc1nn2cc(-c3nc4c(OC[C@H]5CCCN5C(=O)[C@H](NC(=O)c5cccs5)c5ccccc5)cccc4o3)nc2s1` [Example 336, N—((R)-2-((R)-2-(((2-(2-(Methylthio)imidazo[2,1-b][1,3,4]thiadiazol-6-yl)benzo[d]oxazol-4-yl)oxy)methyl)pyrrolidin-1-yl)-2-oxo-1-phenylethyl)thiophene-2-carboxamide], the figure is 897 nM; as for `CSc1nn2cc(-c3nc4c(O)cccc4o3)nc2s1` [Example 147], 78.3 nM. For the molecule `CSc1nn2cc(-c3nc4ccc(Cl)cc4s3)nc2s1` [Example 188], the IC50 came to 920 nM. `CSc1nn2cc(-c3cc4ccc(C)c(C)c4o3)nc2s1` [Example 107]: the IC50 came to 339 nM. In the case of `CSc1nn2cc(-c3cc4ccc(C)cc4o3)nc2s1` [Example 21] it was 22.1 nM; in that of `CSc1nn2cc(-c3nc4ccc(OCc5ccccc5)cc4o3)nc2s1` [Example 115, 6-(Benzyloxy)-2-(2-(methylthio)imidazo[2,1-b][1,3,4]thiadiazol-6-yl)benzo[d]oxazole], 74.9 nM.

In the case of `CC(F)(F)c1nn2cc(-c3cc4c(OCc5cccc(OCc6ccccc6)c5)cc(OS(=O)(=O)C(F)(F)F)cc4o3)nc2s1` [Example 422], the half-inhibitory concentration (IC50) turned out to be 698 nM. As for `COc1cc(OCc2cccc(OCc3cccc4ccccc34)c2)c2cc(-c3cn4nc(OC)sc4n3)oc2c1` [Example 310], the figure is 3.45 nM; as for `COc1cc(OCc2cccc(OCc3cncnc3)c2)c2cc(-c3cn4nc(OC)sc4n3)oc2c1` [Example 329], 71.6 nM; as for `CSc1nn2cc(-c3cc4c(C(=O)O)cccc4o3)nc2s1` [Example 219, 2-(2-(Methylthio)imidazo[2,1-b][1,3,4]thiadiazol-6-yl)benzofuran-4-carboxylic acid], 1280 nM.

On to `CC(F)(F)c1nn2cc(-c3cc4ccc(F)cc4o3)nc2s1` [Example 231], for which the IC50 is 22.3 nM. In the case of `COc1nn2cc(-c3cc4cc(F)ccc4o3)nc2s1` [Example 97] it was 3.48 nM; in that of `COc1cc(OCc2cccc(OCc3cccnc3C)c2)c2cc(-c3cn4nc(OC)sc4n3)oc2c1` [Example 308], 187 nM; in that of `Clc1nccc2oc(-c3cn4nc(Br)sc4n3)cc12` [Example 222, 2-(2-Bromoimidazo[2,1-b][1,3,4]thiadiazol-6-yl)-4-chlorofuro[3,2-c]pyridine], 464 nM. With `COc1ccc(OC)c2oc(-c3cn4nc(SC)sc4n3)cc12` [Example 105], the IC50 was determined as 11.4 nM. As for `COc1cc(OCc2ccc(OC)c(OCc3ccccc3)c2)c2cc(-c3cn4nc(OC)sc4n3)oc2c1` [Example 351], the IC50 came to 2.23 nM. As for `COc1nn2cc(-c3cc4cccc(F)c4o3)nc2s1` [Example 263], the figure is 20.7 nM; as for `COc1cc(OC)c2cc(-c3cn4nc(C(C)F)sc4n3)oc2c1` (stereo not drawn) [Example 212, 6-(4,6-Dimethoxybenzofuran-2-yl)-2-(1-fluoroethyl)imidazo-[2,1-b][1,3,4]thiadiazole], 50.9 nM; as for `CCc1nn2cc(-c3cc4cc(OC)ccc4o3)nc2s1` [Example 61], 1650 nM. As for `Cc1ccc2cc(-c3cn4nc(C(C)(F)F)sc4n3)oc2c1` [Example 233], the figure is 15.7 nM; as for `CCc1nn2cc(-c3nc4ccc(OCC(C)C)cc4o3)nc2s1` [Example 85], 392 nM. As for `COc1nn2cc(-c3cc4c(OCc5ccc(F)cc5)cccc4o3)nc2s1` [Example 266], the figure is 43.1 nM; as for `COc1cccc2oc(-c3cn4nc(SC)sc4n3)nc12` [Example 149], 13.6 nM; as for `CC(F)c1nn2cc(-c3cc4ccc(F)cc4o3)nc2s1` (stereo not drawn) [Example 245], 72.3 nM.

Turning to `CCCOc1ccc2nc(-c3cn4nc(CC)sc4n3)oc2c1` [Example 51], the IC50 worked out at 394 nM. In the case of `CSc1nn2cc(-c3nc4ccc(F)cc4s3)nc2s1` [Example 191] it was 30.7 nM; in that of `COc1cc(OCc2cccc(OCc3c(OC)cccc3OC)c2)c2cc(-c3cn4nc(OC)sc4n3)oc2c1` [Example 388], 3.12 nM; in that of `CSc1nn2cc(-c3nc4cc(C)c(C)cc4o3)nc2s1` [Example 133], 19.7 nM. As for `COc1nn2cc(-c3cc4c(OCc5cccc(OCc6ccccc6)c5)cc(OC(F)F)cc4o3)nc2s1` [Example 416, 6-(4-((3-(Benzyloxy)benzyl)oxy)-6-(difluoromethoxy)benzofuran-2-yl)-2-methoxyimidazo[2,1-b][1,3,4]thiadiazole], the IC50 was 1.09 nM.

For `Cc1ccc2oc(-c3cn4nc(C(C)(F)F)sc4n3)cc2c1` [Example 232], the concentration for half-maximal inhibition (IC50) came out at 152 nM. As for `CCc1nn2cc(-c3nc4ccc(OCc5ccccc5)cc4o3)nc2s1` [Example 67], the IC50 worked out at 103 nM. As for `CCc1nn2cc(-c3nc4ccc(OC5CCC5)cc4o3)nc2s1` [Example 75], the figure is 294 nM; as for `CSc1nn2cc(-c3nc4cc(F)c(F)cc4o3)nc2s1` [Example 137], 23.9 nM.

`CSc1nn2cc(-c3nc4ccc(OCc5cccc(C#N)c5)cc4o3)nc2s1` [Example 150]: the IC50 stood at 621 nM. With `Fc1ccc2nc(-c3cn4nc(Br)sc4n3)sc2c1` [Example 183, 2-(2-bromoimidazo[2,1-b][1,3,4]thiadiazol-6-yl)-6-fluorobenzo[d]thiazole], the IC50 is 412 nM. As for `CCc1nn2cc(-c3nc4ccc(OCC5CC5)cc4o3)nc2s1` [Example 74], the figure is 681 nM; as for `COc1cc(OCc2cccc(OCc3c(C)cc(C)cc3C)c2)c2cc(-c3cn4nc(OC)sc4n3)oc2c1` [Example 377], 6.91 nM.

For the molecule `Fc1ccc2cc(-c3cn4nc(C(F)(F)Cl)sc4n3)oc2c1` [Example 243], the IC50 came out at 364 nM. As for `COc1cc(OC[C@H]2CCCN2C(=O)c2ccc(F)cc2)c2cc(-c3cn4nc(OC)sc4n3)oc2c1` [Example 341], the figure is 22 nM. As for `CSc1nn2cc(-c3nc4cc(C)ccc4o3)nc2s1` [Example 113], the figure is 15.2 nM.

In the case of `CC(F)(F)c1nn2cc(-c3cc4c(OCc5ccccc5)cccc4o3)nc2s1` [Example 250], the IC50 was 267 nM.

Turning to `Fc1cccc2oc(-c3cn4nc(Br)sc4n3)cc12` [Example 276], the IC50 came to 120 nM.

`COc1cc(OCc2cccc(OCc3ccc(Cl)c(Cl)c3)c2)c2cc(-c3cn4nc(OC)sc4n3)oc2c1` [Example 365]: the IC50 was 3.27 nM. Turning to `CCc1nn2cc(-c3nc4ccc(OCc5ccc(Cl)cc5)cc4o3)nc2s1` [Example 83], the half-maximal inhibitory concentration (IC50) stood at 1010 nM. As for `CCc1nn2cc(-c3nc4c(C)cccc4o3)nc2s1` [Example 42], the IC50 turned out to be 462 nM. With `CCc1nn2cc(-c3nc4ccc(OCc5ccccc5Cl)cc4o3)nc2s1` [Example 81], the IC50 was 507 nM. `COc1cc(OCc2cccc(OCc3ccccc3I)c2)c2cc(-c3cn4nc(OC)sc4n3)oc2c1` [Example 379]: the IC50 stood at 7.84 nM. As for `COc1cc(OCc2cccc(OCc3c(Cl)cccc3Cl)c2)c2cc(-c3cn4nc(OC)sc4n3)oc2c1` [Example 368], the IC50 was determined as 4.69 nM. On to `CSc1nn2cc(-c3cc4c(OCc5cccc(OCc6ccccc6)c5)cc(OC(F)F)cc4o3)nc2s1` [Example 424], for which the IC50 came out at 21.4 nM. As for `CSc1nn2cc(-c3nc4c(OCCN5CCOCC5)cccc4o3)nc2s1` [Example 168], the figure is 1150 nM; as for `CSc1nn2cc(-c3nc4c(OCc5ccncc5)cccc4o3)nc2s1` [Example 167], 785 nM; as for `COc1cc(OCc2cccc(OCc3cc(OC)c(OC)c(OC)c3)c2)c2cc(-c3cn4nc(OC)sc4n3)oc2c1` [Example 380], 1.11 nM.

Take `CSc1nn2cc(-c3nc4ccc(OCCF)cc4o3)nc2s1` [Example 118, 6-(2-Fluoroethoxy)-2-(2-(methylthio)imidazo[2,1-b][1,3,4]thiadiazol-6-yl)benzo[d]oxazole]: the IC50 was determined as 191 nM.
